Laboratory results reported in article PMC7998974, “Enhanced Efficacy of Thiosemicarbazone Derivative-Encapsulated Fibrin Liposomes against Candidiasis in Murine Model” (Pharmaceutics, 2021).
Converted amounts (≈) assume the structure as drawn. One block for each molecule: values may come before it.

Columns and labels:
[1] = Pharmacokinetics in healthy mice; format: in vivo; details: single dose, formulations 5 mg/kg b.w., free 2C 1 mg/kg b.w.
Description: For pharmacokinetic studies, 2C-L and 2C-FL were administered to healthy mice. A single dose of 5 mg/kg body weight (b.w.) of the formulations was injected via the tail vein. Free 2C was administered in a single dose comprising 1 mg/kg b.w. Blood aliquots were collected using a non-mortality model at different periods, and serum was centrifuged out. […] Results are reported as the mean ± SD of three independent experiments.

[2] = design: method as in PMID 26457700; details: solubility checked earlier; cited from earlier work
[3] = Determination of 2C dose (LD50) in healthy mice; format: in vivo
Description: The dose of 2C for the antifungal treatment in vivo was determined according to the already published report. Five groups (n = 5/group) comprising healthy mice were intraperitoneally injected with different doses of 2C. Mice of the sixth group (control group) were intraperitoneally injected with PBS.

[4] = test system: C. albicans; experiment: Annexin-V assay for detecting apoptosis; format: cell-based, Candida albicans; details: annexin V-FITC/PI flow cytometry
Description: The therapeutic effect of 2C-FL against fungal infection was done by detecting the presence of apoptosis markers in C. albicans, as mentioned by Tang et al.. Briefly, 5 × 10^6 colony-forming units (CFU)/mL of C. albicans were grown at 37 °C for 5 h in the RPMI 1640 medium containing 2C-L and 2C-FL, separately. The culture was further incubated for 48 h at 37 °C with shaking at 180 rpm. After harvesting and washing with PBS (pH 7.4), the fungus was digested with a lysis buffer. After digestion, apoptotic cell death was analyzed using an annexin V assay as per the published protocol. The fungal cell suspension was incubated with annexin V-FITC (50 µg/mL) and propidium iodide (PI; 200 µg/mL) in dark for 20 min at room temperature. The apoptotic and necrotic cells were scored by flow cytometry (MACSQuant, Germany).

[5] = test system: non-cancer cell lines; design: method as in PMID 24513049; details: cited from earlier work
[6] = In vivo renal and hepatic toxicity (serum creatinine, ALT, total bilirubin); details: healthy mice
Description: (§1) For in vivo toxicity, renal and hepatic toxicities were evaluated in healthy mice. According to the method of Khan et al., [39], a three-dose regimen of 400 µg formulation/dose/mouse was intraperitoneally given on the 1st, 3rd, and 5th days. Blood samples from different treatment groups were taken as pre-dose (a day before the administration of the formulation) and post-dose (the 6th day of the administration of the formulation). The levels of serum creatinine, ALT, and total bilirubin were evaluated by employing a commercial detection kit. Results are expressed as the mean ± SD of three independent experiments. Moreover, the extent of toxicity of 2C-FL was determined on liver and kidney histopathology.

[7] = test system: C. albicans; experiment: Survival of C. albicans-infected mice; format: in vivo, Swiss albino mice; details: 2 mg 2C/kg b.w. for five days
Description: The antifungal activity of 2C-FL was determined in a mouse model with C. albicans infection. For infection, healthy mice were infected with an inoculum of 100 µL saline containing 5 × 10^5 CFU of C. albicans per mouse by an intravenous route in the lateral tail vein. One day post-infection, the mice were randomly distributed into six groups (n = 10/group) and treated with formulations (2 mg 2C/kg b.w.) for five days. […] A simultaneous set of experiments was conducted for the survival studies.
The antifungal ability of 2C-FL was also determined by evaluating the survival rate of the treated mice. The study was conducted for 60 days, during which mice were monitored for mortality twice each day and results were scored.

[8] = Erythrocyte lysis test (in vitro toxicity); format: cell-based; details: rabbit erythrocytes (0.2% RBC suspension), pH 7.4, dose of 10 mg/L, 37 °C, read-out: hemolytic ability to erythrocytes (percent hemolysis)
Description: The in vitro toxicity of free 2C and 2C-FL was determined using the previously published method of erythrocyte lysis test. Briefly, blood samples from a healthy rabbit were collected in an anticoagulant solution. The samples were centrifuged at 4 °C, the pellet containing erythrocytes was washed with PBS (pH 7.4), and, finally, 50% hematocrit was prepared. […] The hemolytic effects were evaluated by visible spectroscopy at 576 nm, and percent hemolysis was calculated. The 100% hemolytic ability of Triton X-100 was taken as the positive control. Results are expressed as the mean ± SD of three independent experiments.

[9] = Histopathological examination of liver and kidney sections; format: in vivo; details: healthy mice, H&E, 200X
Description: as §1
Briefly, the fixed tissues were dehydrated and embedded in paraffin wax. […] Next, paraffin from the sections was removed by three consecutive washings in xylol. The sections were then […] in series of alcohol grades (70–100%), and, finally, the sections were stained with hematoxylin and eosin and visualized under a light microscope (Olympus CLX 41) at 200X magnification.

[10] = test system: Candida albicans ATCC 66027, Candida spp. 12,810 (blood) and Candida spp.; design: method as in PMID 24513049; details: in vitro, series of substituted thiosemicarbazide derivatives; cited from earlier work
[11] = test system: C. albicans (ATCC 18804); experiment: Minimum inhibitory concentration by broth microdilution; format: cell-based; details: Candida albicans, ATCC18804, 50% inhibition of growth, RPMI 1640, 24 h, 37 °C, formulation weight for formulations
[12] = serum, post-dose, 400 µg formulation/dose/mouse i.p. on days 1, 3, 5

Compound: O=C(NNC(=S)Nc1ccc(Cl)cc1)c1ccncc1 [2C]
Cmax ([1]; Swiss albino, mouse, plasma, intravenous): 1400 ± 250 ng/mL
clearance ([1]; Swiss albino, mouse, plasma, intravenous, read-out: CL (plasma clearance) (converted)): 1.28 mL/min
AUC0–24 [1]: 0.91 ± 0.17 µg/mL x h
solubility in water [2]: insoluble in water
LD50 ([3]; healthy mice, intraperitoneal, mortality after 24 h): 20 mg/kg b.w.
mortality at one-tenth of the LD50 ([3]; mice, 2 mg/kg b.w., three weeks of treatment): did not show any mortality
necrosis [4]: prominent increase
toxicity to non-cancer cell lines [5]: minimal toxicity
ALT, Day 6 [6, 12]: 45.1 ± 8.5 U/I
Creatinine, Day 6 [6, 12]: 0.34 ± 0.05 mg%
Total Bilirubin, Day 6 [6, 12]: 0.21 ± 0.07
ALT, Day 0 ([6]; serum, pre-dose): 40.9 ± 7.3 U/I
Creatinine, Day 0 ([6]; serum, pre-dose): 0.29 ± 0.06 mg%
Total Bilirubin, Day 0 ([6]; serum, pre-dose): 0.15 ± 0.04
change in serum creatinine, ALT and bilirubin levels versus healthy control ([6]; sixth day): showed an increase
survival of treated mice till the 30th day [7]: 30%
hemolysis at 1 h, 10 mg/L [8]: 100%
toxic effect on kidney histopathology [9]: prominent toxicity
toxic effect on liver histopathology [9]: focal lytic necrosis and enlarged sinusoids
anti-Candida activity within the series [10]: most effective one
MIC [11]: 0.46 ± 0.05 µg/mL (≈ 1.5 µM)

MIC [11]: 1.26 ± 0.71 µg/mL (≈ 1.79 µM)
Compound: CCC(C)n1ncn(-c2ccc(N3CCN(c4ccc(OCC5COC(Cn6cncn6)(c6ccc(Cl)cc6Cl)O5)cc4)CC3)cc2)c1=O (stereo not shown) [Itraconazole, itraconazole, reference compound]
